Experimental data taken from US10208012B2, “Compounds for treating inflammatory and hyperproliferative diseases” (Board of Regents, The University of Texas System, priority 2013, dated 2019).
Where two headings read alike, the source gives them in different places.

Tests used:
[1] = tested on: mantle cell lymphoma cell lines (Mino and Z-138); test: Thymidine incorporation proliferation assay in mantle cell lymphoma cell lines; format: cell-based
Method: FIG. 1. Effect of Tumeric Derivatives in MCL cells. Six TMX analogs were screened in two mantle cell lymphoma cell lines (Mino and Z-138). These assays were performed by treating cells with increasing doses of TMX (0-25 μM) and analyzed by thymidine incorporation (proliferation assay).
FIG. 2. Effect of Turmerax Compounds in MCLs. 10 additional TMX analogs derived from compound #6 (from FIG. 1) were screened in two mantle cell lymphoma cell lines (Mino and Z-138). These assays were performed by treating cells with increasing doses of TMX (0-25 μM) and analyzed by thymidine incorporation (proliferation assay).
FIG. 3. Effect of Turmerax Compounds in MCLs. Four compounds from FIG. 2 were selected to analyze at concentrations below 1 μM for cell growth inhibition in vitro.
Malignant lymphoma continues to represent a major health issue in the US and worldwide. Non-Hodgkin lymphomas (NHL) are a common, heterogeneous group of primarily (˜85%) B lymphoid cell neoplasms (NHL-B) arising in the B cell lineage of the human immune (lymphoid) system. NHL-Bs are the fifth most common cancer in the USA (˜65,000 new cases/25,000 deaths expected in 2010). Therefore, there is a great need for novel treatment strategies for this deadly cancer, particularly for relapsed/refractory lymphomas. Relapsed/refractory (r/rDLBCL) DLBCL is one of the most difficult scientific challenges and severe unmet therapeutic needs in clinical oncology today. This is due largely to very drug resistant tumor cells with very poor responses (<20% PR/CR) to current “salvage” therapies. Key pathways (NF-kB, AKT, STAT3), controlling cell growth/survival and chemoresistance in DLBCL have been discovered. Since natural compounds such as turmeric can target multiple pathways with low cellular toxicity, novel compounds with higher potency for cancer cells were sought. Initially, 6 novel turmeric analogues were designed and synthesized using cyclic thioketone and different substituted aromatic aldehydes. […] These compounds were named turmerax (TMX) (1-10), and tested them in the two resistant mantle cell lymphoma cell lines (Mino and Z-138). […] Turmerax compounds 1, 3, 5 and 9 were further analyzed at concentrations below 1 μM for cell growth inhibition in vitro. […] Next, the toxicity of these Turmerax compounds (1, 3, 5 and 9) was evaluated in normal human peripheral blood mononuclear cells (PBMC). […] The effectiveness of Turmerax compounds 1 and 5 in four MCL cell lines were examined, four LBCL cell lines (both ABC and GCB-type) and one follicular lymphoma cell line (CJ) in comparison to the wild type (natural) curcumin compound, to which these compounds bear some structural relatedness. The IC50 for Turmerax cmpds.

[2] = tested on: normal human peripheral blood mononuclear cells (PBMC); test: Cytotoxicity in normal PBMC by thymidine incorporation; format: cell-based; settings: minimal toxicity stated for drug concentration below 600 nM
Text: FIG. 4. Effect of Turmerax compounds in normal peripheral blood mononuclear cells (PBMC). Turmeric analogues (1, 3, 5, and 9) were evaluate for cytoxicity in normal human peripheral blood mononuclear cells (PBMC) by thymidine incorporation assays.
Malignant lymphoma continues to represent a major health issue in the US and worldwide. Non-Hodgkin lymphomas (NHL) are a common, heterogeneous group of primarily (˜85%) B lymphoid cell neoplasms (NHL-B) arising in the B cell lineage of the human immune (lymphoid) system. NHL-Bs are the fifth most common cancer in the USA (˜65,000 new cases/25,000 deaths expected in 2010). Therefore, there is a great need for novel treatment strategies for this deadly cancer, particularly for relapsed/refractory lymphomas. Relapsed/refractory (r/rDLBCL) DLBCL is one of the most difficult scientific challenges and severe unmet therapeutic needs in clinical oncology today. This is due largely to very drug resistant tumor cells with very poor responses (<20% PR/CR) to current “salvage” therapies. Key pathways (NF-kB, AKT, STAT3), controlling cell growth/survival and chemoresistance in DLBCL have been discovered. Since natural compounds such as turmeric can target multiple pathways with low cellular toxicity, novel compounds with higher potency for cancer cells were sought. Initially, 6 novel turmeric analogues were designed and synthesized using cyclic thioketone and different substituted aromatic aldehydes. […] These compounds were named turmerax (TMX) (1-10), and tested them in the two resistant mantle cell lymphoma cell lines (Mino and Z-138). […] Turmerax compounds 1, 3, 5 and 9 were further analyzed at concentrations below 1 μM for cell growth inhibition in vitro. […] Next, the toxicity of these Turmerax compounds (1, 3, 5 and 9) was evaluated in normal human peripheral blood mononuclear cells (PBMC). […]

[3] = Water solubility, suspended in water for 24 hrs; format: physicochemical
Text: FIG. 8. Water Solubility of Lipo-Turmerax-1 Compound. Liposomal TMX-1 and TMX-1 compounds were suspended in water for 24 hrs.
(§1) These formulations may be used in further clinical trials.

[4] = tested on: pH2AX; test: DNA damage marker in LY-10 cells; format: cell-based
Method: (§2) FIGS. 12A-C. TMX-1 induces apoptosis in lymphoma cells. (FIG. 12A) A representative lymphoma cell line (LY10) was treated with TMX-1 in a dose-dependent manner for 24 hrs. Apoptosis was determined by Annexin V assays. (FIG. 12B) TMX-1 activates phospho-H2AX (DNA damage marker) and induces bcl-2 cleaving in lymphoma cells. (FIG. 12C) A representative DLBCL cell line (MS) was transfected with a NF-kB-luciferase reporter for 24 hrs. Cells were treated with TMX-1 as indicated.
(§3) To determine whether TMX-1 can induce apoptosis in lymphoma cells, we treated a diffuse large cell lymphoma (DLBCL) cell line (LY-10) with TMX-1 in a dose-dependent manner for 24 hrs. Control and treated cells were analyzed for apoptosis using Annexin V assays. […] Next, we test whether TMX-1 can induces DNA damage in LY-10 cells. […] The inventors also examined whether TMX-1 can inhibit NF-kB activity in lymphoma cells. For these studies, a DLBCL cell line (MS) was transfected with a NF-kB luciferase reporter for 24 hrs, at which time cells were treated with TMX-1 in a dose- and time-dependent manner. […] There are many NF-kB inhibitors commercially available that have been tested in many cancer systems, but none has ever reached the clinic to cancer treatment. The reason for this is typically because these agents usually target upstream of NF-kB signaling pathways, leading to many unwanted side effects.

[5] = tested on: melanoma, gastric, pancreatic, and glioma cancer cell lines; test: MTT cell growth inhibition in NF-kB-associated solid tumor cancer cell lines; format: cell-based
Text: FIG. 11. Effect of TMX-1 in NF-kB-Associated Cancers. Representative cancer cell lines for melanoma, gastric, pancreatic, and glioma were used to analyzed for cell growth inhibition activity of TMX-1 using MTT assays.
as §1

[6] = tested on: bcl-2; test: bcl-2 cleaving in LY-10 cells; format: cell-based
Method: as §2, §3

[7] = tested on: pAKT; test: Western blotting of pAKT in MS cells; format: cell-based; settings: Lipo-TMX-1 0-500 nM, 24 hrs
Method: (§4) FIG. 7. TMX-1 Targets NF-kB and Key Signaling Pathways in DLBCL to Overcome Chemoresistance. Top left, DLBCL cells (MS) were transfect with the 6×-NF-kB-luciferase expression vector for 24 hrs. Transfected cells were treated with PBS (control) or Lipo-TMX-1 (100 nM) for 4 hrs. Cell lysates were used to analyzed for luciferase activity that was normalized with b-gal activity. Top right, TMX-1 inhibited NIK and pAKT in NHL-B cells. MS cells were treated with increasing doses of Lipo-TMX-1 (0-500 nM) for 24 hrs. NIK and pAKT protein expressions were determined by Western blotting. Bottom, Doxorubicin resistant cells are sensitive to TMX-1. MS cells are resistant to Dox, but are sensitive to TMX-1. McA DLBCL cells are sensitive to both doxorubicin and TMX-1.

[8] = tested on: human DLBCL cell lines (Dox-sensitive and Dox-resistant); test: 72-hr proliferation assays in doxorubicin-sensitive and -resistant DLBCL cell lines; format: cell-based
Method: FIGS. 13A-B. TMX-1 inhibits DLBCL cell proliferation. (FIG. 13A) 24 representative DLBCL cell lines were treated with TMX-1 in dose-dependent manner and analyzed by thymidine incorporation assays for cell growth inhibition. (FIG. 13B) Effect of TMX-1 in doxorubicin highly sensitive and highly resistant DLBCL cell lines (Pham et al., 2011).
DLBCL are currently initially treated fairly successfully with R-CHOP frontline chemotherapy (˜70-80% initial remission rate), but relapsed/refractory DLBCL occurs frequently (˜40% within 2-3 yrs), with very poor salvage therapy options (˜20% PR/CR). A unique repertoire of human DLBCL cell lines were developed (Ford et al., 1990; Pham et al., 2010) that can be classified into two subgroups, doxorubicin (a key component in CHOP)-sensitive and doxorubicin-resistant. These cell lines were screened against TMX-1 in a dose-dependent manner using 72-hr proliferation assays (FIG. 13A).

[9] = tested on: McA DLBCL cells; test: Sensitivity of doxorubicin-sensitive DLBCL cells; format: cell-based
Method: as §4

[10] = Bio-availability in vivo
Text: as §1

[11] = tested on: LY10 cells; test: Annexin V apoptosis assay; format: cell-based; settings: 500 nM drug concentration, 24 hrs
Method: as §2, §3

[12] = tested on: MS cells; test: Sensitivity of doxorubicin-resistant DLBCL cells; format: cell-based
Method: as §4

[13] = tested on: NIK; test: Western blotting of NIK in MS cells; format: cell-based; settings: Lipo-TMX-1 0-500 nM, 24 hrs
Method: as §4

[14] = tested on: DLBCL cell line (TJ); test: Combination cell proliferation assays in DLBCL cell line (TJ); format: cell-based; settings: TJ cells
Method: FIGS. 14A-B. A representative DLBCL cell line (TJ) was treated with TMX-1 in a dose-dependent manner alone or in combination with Ibrutinib (IB) and carfilzomib (CFZ) and cell proliferation assays were analyzed.
Recent molecularly targeted therapy, as opposed to classic chemotherapy, has improved the treatment of lymphoid malignancies. At the forefront of clinical development are ibrutinib, an inhibitor of Bruton's tyrosine kinase (btk) and carfilzomib (CFZ), a second-generation proteasome inhibitor.

[15] = Mino and Z-138, doses 0-25 μM, thymidine incorporation, read-out: IC50, cell growth inhibition
[16] = further analyzed at concentrations below 1 μM, read-out: IC50, cell growth inhibition

CCOC(=O)c1ccc(/C=C2\CSC/C(=C\c3ccc(C(=O)OCC)cc3)C2=O)cc1 [Turmerax 6, 3,5-bis[(4-ethoxycarbonylphenyl)methylene]-tetrahydrothiopyran-4-one]
IC50 [1, 15]: 3000 to 10000 nM

COc1ccc(/C=C2\CSC/C(=C\c3ccc(OC)c(C)c3C)C2=O)c(C)c1C [Turmerax 7, 3,5-bis[(3,4-dimethyl-4-methoxyphenyl)methylene]-tetrahydrothiopyran-4-one]
IC50 [1, 15]: > 25000 nM

O=C1/C(=C/c2ccc([N+](=O)[O-])c(O)c2)CSC/C1=C\c1ccc([N+](=O)[O-])c(O)c1 [Turmerax 3, 3,5-bis[(3-hydroxy-4-nitrophenyl)methylene]-tetrahydrothiopyran-4-one]
toxicity to PBMC [2]: only minimal cell toxicity | IC50 ([1]; read-out: IC50, cell growth inhibition, Mino and Z-138, doses 0-25 μM, thymidine incorporation): < 1000 nM | IC50 ([1]; read-out: IC50, cell growth inhibition, further analyzed at concentrations below 1 μM): 200 to 800 nM

O=C1/C(=C/c2c(F)ccc(Cl)c2F)CSC/C1=C\c1c(F)ccc(Cl)c1F [Turmerax 8, 3,5-bis[(2,6-difluoro-3-chlorophenyl)methylene]-tetrahydrothiopyran-4-one]
IC50 [1, 15]: > 25000 nM

N#Cc1cccc(/C=C2\CSC/C(=C\c3cccc(C#N)c3)C2=O)c1 [Turmerax 1, 3,5-bis[(3-cyanophenyl)methylene]-tetrahydrothiopyran-4-one]
toxicity to PBMC [2]: only minimal cell toxicity | precipitation in water [3]: shows precipitation | pH2AX (DNA damage marker) [4]: significantly increased | inhibition of solid tumor cancer cells [5]: highly effective | bcl-2 anti-apoptotic protein [6]: cleaved | pAKT protein expression [7]: inhibited | activity in Dox-sensitive vs. Dox-resistant DLBCL cell lines [8]: equivalent | IC50 [1, 15]: < 1000 nM | IC50 [1, 16]: 100 to 200 nM | sensitivity of McA DLBCL cells [9]: sensitive | bio-availability [10]: reduced bio-availability | apoptosis induced [11]: up to 80% | sensitivity of MS cells [12]: sensitive | NIK protein expression [13]: inhibited | effectiveness of combination with ibrutinib compared with combination with CFZ [14]: more effective than TMX-1 in combination with CFZ | interaction with ibrutinib in inhibiting lymphoma cell growth [14]: highly synergistic

COc1cccc2c1C(=O)c1c(O)c3c(c(O)c1C2=O)C[C@@](O)(C(=O)CO)C[C@@H]3O[C@H]1C[C@H](N)[C@H](O)[C@H](C)O1 [doxorubicin, reference compound]
sensitivity of McA DLBCL cells [9]: sensitive | sensitivity of MS cells [12]: resistant

O=C1/C(=C/c2ccc(Cl)c([N+](=O)[O-])c2)CSC/C1=C\c1ccc(Cl)c([N+](=O)[O-])c1 [Turmerax 5, 3,5-bis[(3-nitro-4-chlorophenyl)methylene]-tetrahydrothiopyran-4-one]
IC50 [1, 15]: < 1000 nM | IC50 [1, 16]: 100 to 200 nM

COc1ccc(/C=C2\CSC/C(=C\c3ccc(OC)c(OC)c3OC)C2=O)c(OC)c1OC [Turmerax 4, 3,5-bis[(2,3,4-trimethoxyphenyl)methylene]-tetrahydrothiopyran-4-one]
IC50 [1, 15]: > 25000 nM

O=C1/C(=C/c2ccc(Cl)c(Cl)c2)CSC/C1=C\c1ccc(Cl)c(Cl)c1 [Turmerax 2, 3,5-bis[(3,4-dichlorophenyl)methylene]-tetrahydrothiopyran-4-one]
IC50 [1, 15]: 3000 to 10000 nM

N#Cc1ccc(/C=C2\CSC/C(=C\c3ccc(C#N)cc3)C2=O)cc1 [Turmerax 9]
toxicity to PBMC [2]: some toxicity | IC50 [1, 15]: < 1000 nM | IC50 [1, 16]: 200 to 800 nM

O=C1/C(=C/c2ccc(Br)cc2)CSC/C1=C\c1ccc(Br)cc1 [Turmerax 10, 3,5-bis[(4-bromophenyl)methylene]-tetrahydrothiopyran-4-one]
IC50 [1, 15]: 3000 to 10000 nM
